Results taken from PubChem BioAssay AID278 (DTP/NCI, 2004).
Values joined by “and” are separate entries in the source; they are usually repeats but may differ in a detail not shown here. Equal values may be shown once. Records with an inconclusive call do not appear.

Tested on: nude mice, A549 intrarenal xenograft, tumor weight change
Assay: NCI In Vivo Anticancer Drug Screen. Data for tumor model A549 Human Adenocarcinoma of Lung with characteristics of Type II Alveolar Epithelial cells (intrarenal inoculation) in NU/NU BALB/C (nude) mice
Settings: endpoint: mean tumor weight change, schedule: Q04DX003 (ip), higher = larger tumour
Procedure: The antitumor activity of compounds was measured in mice bearing transplantable tumors. Survival or tumor size were measured and the results are expressed as the measurement made in the treated group (T) divided by the measurement made in the vehicle treated control group (C). The tumor model used in this assay is A549 Human Adenocarcinoma of Lung with characteristics of Type II Alveolar Epithelial cells (intrarenal inoculation) in NU/NU BALB/C (nude) mice

[1] = dose: 50.0 mg/kg/injection, vehicle: saline with Tween-80
[2] = dose: 100.0 mg/kg/injection, vehicle: saline with Tween-80
[3] = dose: 200.0 mg/kg/injection, vehicle: saline with Tween-80
[4] = dose: 75.0 mg/kg/injection, vehicle: Klucel (hydroxypropylcellulose) (HPC)
[5] = dose: 150.0 mg/kg/injection, vehicle: Klucel (hydroxypropylcellulose) (HPC)
[6] = dose: 300.0 mg/kg/injection, vehicle: Klucel (hydroxypropylcellulose) (HPC)
[7] = dose: 12.5 mg/kg/injection, vehicle: saline with Tween-80
[8] = dose: 25.0 mg/kg/injection, vehicle: saline with Tween-80

SMILES: Cc1ccc(C(=O)NC2C(=O)NC(C(C)C)C(=O)N3CCCC3C(=O)N(C)CC(=O)N(C)C(C(C)C)C(=O)OC2C)c2c1Oc1c(c(C(=O)NC3C(=O)NC(C(C)C)C(=O)N4CCCC4C(=O)N(C)CC(=O)N(C)C(C(C)C)C(=O)OC3C)c3nc(-c4ccccc4)c(=O)oc3c1C)N2 (configuration not stated)
- T/C (dose: 0.36 mg/kg/injection, vehicle: water): 101 % of control
- T/C (dose: 0.5 mg/kg/injection, vehicle: water): 61 % of control
- T/C (dose: 0.6 mg/kg/injection, vehicle: water): 94 % of control
- T/C (dose: 1.67 mg/kg/injection, vehicle: water): 62 % of control

SMILES: [Cl][Pt][Cl].[NH-]C(CO)C(=O)O (configuration not stated)
- T/C (dose: 37.5 mg/kg/injection, vehicle: water): 93 % of control
- T/C (dose: 75.0 mg/kg/injection, vehicle: water): 247 % of control
- T/C (dose: 150.0 mg/kg/injection, vehicle: water): 63 % of control

SMILES: CCOc1ccc(C(C)c2cc3c(cc2OC)OCO3)cc1 (configuration not stated)
- T/C (dose: 100.0 mg/kg/injection, vehicle: distilled water + Tween-80): 61 % of control
- T/C (dose: 200.0 mg/kg/injection, vehicle: distilled water + Tween-80): 59 % of control
- T/C (dose: 400.0 mg/kg/injection, vehicle: distilled water + Tween-80): 63 % of control

SMILES: CCCCCCCCCCCCN1C(C)=CS/C1=C\C=C\c1scc(C)[n+]1CCCCCCCCCCCC
- T/C (dose: 0.75 mg/kg/injection, vehicle: saline with Tween-80): 112 % of control
- T/C (dose: 1.5 mg/kg/injection, vehicle: saline with Tween-80): 87 % of control
- T/C (dose: 6.0 mg/kg/injection, vehicle: saline with Tween-80): 36 % of control

SMILES: NC(Cc1ccc(N(CCCl)Cc2ccccc2)cc1)C(=O)O (configuration not stated)
- T/C [1]: 74 % of control
- T/C [2]: 32 % of control
- T/C [3]: 38 % of control

SMILES: NC(=S)N/N=C/c1cc(=O)c2cc(Cl)ccc2o1
- T/C (dose: 75.0 mg/kg/injection, vehicle: DMSO): 66 % of control
- T/C (dose: 150.0 mg/kg/injection, vehicle: other): 15 % of control
- T/C (dose: 300.0 mg/kg/injection, vehicle: DMSO): 152 % of control
- T/C (dose: 300.0 mg/kg/injection, vehicle: other): 29 % of control
- T/C (dose: 600.0 mg/kg/injection, vehicle: DMSO): 150 % of control
- T/C (dose: 600.0 mg/kg/injection, vehicle: other): 36 % of control

SMILES: Nc1nc2n[nH]nc2c(=O)[nH]1
- T/C (dose: 75.0 mg/kg/injection, vehicle: suspension in saline): 45 % of control
- T/C (dose: 150.0 mg/kg/injection, vehicle: suspension in saline): 60 % of control
- T/C (dose: 300.0 mg/kg/injection, vehicle: suspension in saline): 22 % of control

SMILES: Cc1cccc(OCC(O)CN2CC2)c1 (configuration not stated)
- T/C [1]: 82 % of control
- T/C [2]: 46 % of control
- T/C [3]: 81 % of control

SMILES: COc1cc(C)c(C2NC(=O)c3ccccc3N2)cc1C (configuration not stated)
- T/C [4]: 5 % of control
- T/C (dose: 129.6 mg/kg/injection, vehicle: Klucel (hydroxypropylcellulose) (HPC)): 161 % of control
- T/C [5]: 47 % of control
- T/C [6]: 6 % of control
- T/C (dose: 360.0 mg/kg/injection, vehicle: Klucel (hydroxypropylcellulose) (HPC)): 112 % of control
- T/C (dose: 1000.0 mg/kg/injection, vehicle: Klucel (hydroxypropylcellulose) (HPC)): 65 % of control

SMILES: Cc1cc(O)c2c(c1O)C(=O)C13C(=C2O)C(=O)C2C(O)C1C1C(O)C3C(=O)C3=C(O)c4c(O)cc(C)c(O)c4C(=O)C321 (configuration not stated)
- T/C (dose: 1.0 mg/kg/injection, vehicle: saline with Tween-80): 172 % of control
- T/C (dose: 2.0 mg/kg/injection, vehicle: saline with Tween-80): 112 % of control

SMILES: O=C(O)CCCc1ccc(N(CCCl)CCCl)cc1
- T/C (dose: 0.13 mg/kg/injection, vehicle: Klucel (hydroxypropylcellulose) (HPC)): 93 % of control
- T/C (dose: 0.2 mg/kg/injection, vehicle: Klucel (hydroxypropylcellulose) (HPC)): 101 % of control
- T/C (dose: 0.3 mg/kg/injection, vehicle: Klucel (hydroxypropylcellulose) (HPC)): 169 % of control
- T/C (dose: 12.0 mg/kg/injection, vehicle: saline with Tween-80): 118 % of control
- T/C (dose: 18.0 mg/kg/injection, vehicle: saline with Tween-80): 64 % of control
- T/C (dose: 27.0 mg/kg/injection, vehicle: saline with Tween-80): 15 % of control

SMILES: C=CCOc1cc2c(cc1C(C)c1ccc(OC)cc1)OCO2 (configuration not stated)
- T/C [4]: 58 % of control
- T/C [5]: 94 % of control and 77 % of control

SMILES: NC(Cc1ccccc1)C(=O)OCN1C(=O)C2C3C=CC(C2C1=O)C1C2C(=O)N(COC(=O)C(N)Cc4ccccc4)C(=O)C2C31 (configuration not stated)
- T/C (dose: 25.0 mg/kg/injection, vehicle: other): 82 % of control
- T/C (dose: 50.0 mg/kg/injection, vehicle: other): 73 % of control
- T/C (dose: 100.0 mg/kg/injection, vehicle: other): 48 % of control
- T/C (dose: 200.0 mg/kg/injection, vehicle: other): 35 % of control

SMILES: NNC(=O)c1ccncc1
- T/C (dose: 37.5 mg/kg/injection, vehicle: saline): 99 % of control
- T/C (dose: 75.0 mg/kg/injection, vehicle: saline): 104 % of control
- T/C (dose: 150.0 mg/kg/injection, vehicle: saline): 69 % of control

SMILES: O=C1c2cccc(NCCCNCCO)c2C(=O)c2cccc(NCCCNCCO)c21
- T/C (dose: 12.5 mg/kg/injection, vehicle: acid diluted with saline): 108 % of control
- T/C (dose: 25.0 mg/kg/injection, vehicle: acid diluted with saline): 70 % of control

SMILES: Cc1cc(NC(=S)SCc2ccc3c(c2)OCO3)ccc1Cl
- T/C [6]: 61 % of control
- T/C (dose: 600.0 mg/kg/injection, vehicle: Klucel (hydroxypropylcellulose) (HPC)): 73 % of control

SMILES: CCC(NC(N)=O)C(CC)NC(N)=O (configuration not stated)
- T/C (dose: 6.25 mg/kg/injection, vehicle: saline with Tween-80): 68 % of control
- T/C [7]: 120 % of control
- T/C [8]: 102 % of control

SMILES: COc1cc2c(cc1OC)-c1c3c(cc4c1[C@@H](C2)N(C)CC4)OCO3
- T/C (dose: 37.5 mg/kg/injection, vehicle: distilled water + Tween-80 + alcohol): 89 % of control
- T/C (dose: 75.0 mg/kg/injection, vehicle: distilled water + Tween-80 + alcohol): 84 % of control
- T/C (dose: 150.0 mg/kg/injection, vehicle: distilled water + Tween-80 + alcohol): 21 % of control

SMILES: S=c1sc2ccccc2n1CN1CCOCC1
- T/C (dose: 150.0 mg/kg/injection, vehicle: saline with Tween-80): 81 % of control
- T/C (dose: 300.0 mg/kg/injection, vehicle: saline with Tween-80): 172 % of control
- T/C (dose: 600.0 mg/kg/injection, vehicle: saline with Tween-80): 57 % of control

SMILES: CC(C)N1C(=O)N(Cl)C2C1N(Cl)C(=O)N2Cl (configuration not stated)
- T/C [7]: 51 % of control and 76 % of control
- T/C [8]: 18 % of control

SMILES: Cc1ccc(/C=C/C(=O)/C=C/c2ccc(C)o2)o1
- T/C (dose: 100.0 mg/kg/injection, vehicle: DMSO): 123 % of control
- T/C (dose: 200.0 mg/kg/injection, vehicle: DMSO): 73 % of control
- T/C (dose: 400.0 mg/kg/injection, vehicle: DMSO): 78 % of control
- T/C (dose: 800.0 mg/kg/injection, vehicle: DMSO): 68 % of control

SMILES: CC[C@]1(O)C[C@H]2CN(CCc3c([nH]c4ccccc34)[C@@](C(=O)OC)(c3cc4c(cc3OC)N(C)[C@H]3[C@@](O)(C(=O)OC)[C@H](OC(C)=O)[C@]5(CC)C=CCN6CC[C@]43[C@@H]65)C2)C1
- T/C (dose: 0.67 mg/kg/injection, vehicle: Klucel (hydroxypropylcellulose) (HPC)): -2 % of control
- T/C (dose: 1.0 mg/kg/injection, vehicle: Klucel (hydroxypropylcellulose) (HPC)): -49 % of control
